Reference: ChEMBL document CHEMBL3822384, “2-(3-Methoxyphenyl)quinazoline Derivatives: A New Class of Direct Constitutive Androstane Receptor (CAR) Agonists” (J Med Chem, 2016)
Calls of active or inactive are those of the source. No cut-off for these calls is given here.

Experiments:
[1] = molecular target: T1, Vitamin D3 receptor (Homo sapiens, UniProt P11473); test: Agonist activity at VDR expressed in human HuH7 cells after 24 hrs by pDR3-luciferase reporter gene assay; format: cell-based, Huh-7
T1 sequence (P11473 whole entry): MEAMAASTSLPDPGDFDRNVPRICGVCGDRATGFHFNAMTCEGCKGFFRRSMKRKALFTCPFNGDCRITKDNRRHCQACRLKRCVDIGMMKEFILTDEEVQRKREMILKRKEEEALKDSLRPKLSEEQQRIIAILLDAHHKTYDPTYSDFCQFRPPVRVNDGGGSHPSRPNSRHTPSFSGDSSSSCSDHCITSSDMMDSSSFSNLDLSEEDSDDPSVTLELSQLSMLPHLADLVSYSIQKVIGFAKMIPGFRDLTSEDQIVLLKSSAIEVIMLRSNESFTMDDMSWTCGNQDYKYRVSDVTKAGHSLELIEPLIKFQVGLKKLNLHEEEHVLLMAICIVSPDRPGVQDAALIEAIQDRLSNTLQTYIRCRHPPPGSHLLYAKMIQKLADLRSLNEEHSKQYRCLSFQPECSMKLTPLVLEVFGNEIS

[2] = molecular target: T2, Glucocorticoid receptor (Homo sapiens) (UniProt P04150); test: Agonist activity at glucocorticoid receptor (unknown origin)
T2 sequence (whole entry): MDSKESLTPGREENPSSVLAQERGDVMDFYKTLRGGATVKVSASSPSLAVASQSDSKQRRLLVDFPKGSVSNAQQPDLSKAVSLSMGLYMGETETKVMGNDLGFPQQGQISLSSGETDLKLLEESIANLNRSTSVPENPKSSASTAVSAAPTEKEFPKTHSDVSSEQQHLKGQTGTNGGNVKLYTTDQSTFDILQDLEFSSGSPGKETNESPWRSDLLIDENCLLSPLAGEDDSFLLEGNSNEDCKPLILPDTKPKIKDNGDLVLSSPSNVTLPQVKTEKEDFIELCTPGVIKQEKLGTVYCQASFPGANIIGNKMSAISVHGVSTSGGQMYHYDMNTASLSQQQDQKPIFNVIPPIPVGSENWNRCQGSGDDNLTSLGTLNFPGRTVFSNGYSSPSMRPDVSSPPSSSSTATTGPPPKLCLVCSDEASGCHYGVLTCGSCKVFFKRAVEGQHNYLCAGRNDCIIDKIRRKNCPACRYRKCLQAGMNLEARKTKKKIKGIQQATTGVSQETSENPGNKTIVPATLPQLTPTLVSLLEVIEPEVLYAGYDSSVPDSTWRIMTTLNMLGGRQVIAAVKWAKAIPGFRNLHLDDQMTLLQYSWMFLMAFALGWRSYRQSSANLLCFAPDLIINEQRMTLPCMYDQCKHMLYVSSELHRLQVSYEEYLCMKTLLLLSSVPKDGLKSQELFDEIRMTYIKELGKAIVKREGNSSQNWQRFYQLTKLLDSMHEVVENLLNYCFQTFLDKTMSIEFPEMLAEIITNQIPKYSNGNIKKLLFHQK

[3] = molecular target: T3, Vitamin D3 receptor (Homo sapiens) (UniProt P11473); test: Agonist activity at VDR in human primary hepatocytes assessed as upregulation of CYP3A4 mRNA expression at 10 uM after 24 hrs by qRT-PCR method; format: cell-based; conditions: Hepatocyte
T3 sequence (whole entry): T1 sequence (P11473 whole entry)

[4] = molecular target: T3, Vitamin D3 receptor (Homo sapiens); test: Agonist activity at VDR in human primary hepatocytes assessed as upregulation of CYP2C9 mRNA expression at 10 uM after 24 hrs by qRT-PCR method; format: cell-based; conditions: Hepatocyte
[5] = molecular target: T3, Vitamin D3 receptor (Homo sapiens); test: Agonist activity at VDR in human primary hepatocytes assessed as upregulation of MDR/ABCB1 mRNA expression at 10 uM after 24 hrs by qRT-PCR method; format: cell-based; conditions: Hepatocyte
[6] = molecular target: Cytochrome P450 3A4 (Homo sapiens, UniProt P08684); test: Inhibition of recombinant human CYP3A4 by P450-Glo luminescence assay; format: ADME
[7] = molecular target: T4, Cytochrome P450 2B6 (Homo sapiens, UniProt P20813); test: Inhibition of recombinant human CYP2B6 by P450-Glo luminescence assay; format: ADME
T4 sequence (P20813 whole entry): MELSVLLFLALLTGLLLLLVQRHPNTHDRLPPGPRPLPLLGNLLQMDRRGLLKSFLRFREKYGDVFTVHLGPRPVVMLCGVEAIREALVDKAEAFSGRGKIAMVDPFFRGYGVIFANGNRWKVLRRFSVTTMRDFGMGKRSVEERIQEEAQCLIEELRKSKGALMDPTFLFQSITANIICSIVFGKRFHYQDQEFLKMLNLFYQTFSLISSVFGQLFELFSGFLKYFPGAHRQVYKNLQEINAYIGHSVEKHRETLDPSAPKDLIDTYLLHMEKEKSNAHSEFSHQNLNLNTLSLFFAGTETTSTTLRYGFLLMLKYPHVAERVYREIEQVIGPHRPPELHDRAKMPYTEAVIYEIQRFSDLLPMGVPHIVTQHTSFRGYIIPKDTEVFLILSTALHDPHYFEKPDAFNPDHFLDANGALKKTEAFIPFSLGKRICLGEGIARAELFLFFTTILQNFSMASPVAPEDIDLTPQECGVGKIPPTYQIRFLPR

[8] = molecular target: T5, Cytochrome P450 1A2 (Homo sapiens, UniProt P05177); test: Inhibition of recombinant human CYP1A2 by P450-Glo luminescence assay; format: ADME
T5 sequence (P05177 whole entry): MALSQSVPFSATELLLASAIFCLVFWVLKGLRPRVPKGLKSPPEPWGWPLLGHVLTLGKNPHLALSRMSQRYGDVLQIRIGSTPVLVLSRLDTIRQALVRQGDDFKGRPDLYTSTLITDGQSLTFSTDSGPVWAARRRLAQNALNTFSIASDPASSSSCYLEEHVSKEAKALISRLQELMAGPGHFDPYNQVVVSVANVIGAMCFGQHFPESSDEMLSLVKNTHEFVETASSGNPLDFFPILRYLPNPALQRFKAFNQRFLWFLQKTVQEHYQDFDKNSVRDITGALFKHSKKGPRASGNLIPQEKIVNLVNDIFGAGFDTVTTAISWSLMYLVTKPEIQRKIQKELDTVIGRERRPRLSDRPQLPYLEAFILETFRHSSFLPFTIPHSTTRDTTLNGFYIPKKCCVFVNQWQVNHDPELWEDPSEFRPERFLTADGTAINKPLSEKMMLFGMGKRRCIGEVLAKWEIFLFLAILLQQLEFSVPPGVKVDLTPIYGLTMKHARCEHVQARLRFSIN

Cytochrome P450 3A4, sequence (P08684 whole entry): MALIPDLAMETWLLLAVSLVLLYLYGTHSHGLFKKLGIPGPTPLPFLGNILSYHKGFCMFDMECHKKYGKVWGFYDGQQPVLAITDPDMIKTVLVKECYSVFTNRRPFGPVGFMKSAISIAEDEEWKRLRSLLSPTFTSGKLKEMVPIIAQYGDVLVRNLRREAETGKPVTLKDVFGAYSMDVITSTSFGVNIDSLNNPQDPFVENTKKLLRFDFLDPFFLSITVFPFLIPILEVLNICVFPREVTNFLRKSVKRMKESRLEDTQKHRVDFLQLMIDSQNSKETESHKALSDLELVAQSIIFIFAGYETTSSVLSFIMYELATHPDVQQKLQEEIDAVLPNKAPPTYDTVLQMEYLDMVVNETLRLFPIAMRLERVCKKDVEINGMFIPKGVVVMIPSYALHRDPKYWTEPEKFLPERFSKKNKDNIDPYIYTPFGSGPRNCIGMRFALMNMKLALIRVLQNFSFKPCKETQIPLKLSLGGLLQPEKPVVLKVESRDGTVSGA

EC50 [1] [µM]	Activity [2]	Activity [3]	Activity [4]	Activity [5]	IC50 ([6]; read-out: IC50) [µM]	IC50 [7] [µM]	IC50 [8] [µM]	IC50 [6]	Structure (SMILES)
> 3	inactive	Active	Active	Active	22.9	31.8	0.42		COc1cccc(-c2nc(SC)c3ccccc3n2)c1
1.95	inactive	Active	Active	Active	12.9	36.2	0.18		COc1cccc(-c2nc(OC)c3ccccc3n2)c1
0.51	inactive	Active	Active	Active		35.7	0.75	Not Active	COc1cccc(-c2nc3ccccc3c(=S)[nH]2)c1
